Marks after values point to notes of the source that are not given here.
What was measured:
SERT [1] = target: T1, SERT (Homo sapiens, UniProt P31645); experiment: hSERT membrane radioligand binding assay (3H-citalopram); design: expressed in transfected cells; host or cells: HEK-293; conditions: hSERT membranes (HEK-293), 1.0 nM 3H-citalopram; for Ki: read-out: SERT pKi (converted)
Experimental: (§1) Membrane radioligand binding assays were used to measure inhibition of labeled ligand (^3H-citalopram or ^3H-nisoxetine or ^3H-WIN35428) binding to membranes prepared from cells expressing the respective human recombinant transporter (hSERT or hNET or hDAT) in order to determine the pKi values of test compounds at the transporters.
(§2) Recombinant human embryonic kidney (HEK-293) derived cell lines stably transfected with hSERT or hNET, respectively, were grown in DMEM medium supplemented with 10% dialyzed FBS (for hSERT) or FBS (for hNET), 100 μg/ml penicillin, 100 μg/ml streptomycin, 2 mM L-glutamine and 250 μg/ml of the aminoglycoside antibiotic G418, in a 5% CO2 humidified incubator at 37° C. When cultures reached 80% confluence, the cells were washed thoroughly in PBS (without Ca^2+ and Mg^2+) and lifted with 5 mM EDTA in PBS. Cells were pelleted by centrifugation, resuspended in lysis buffer (10 mM Tris-HCl, pH7.5 containing 1 mM EDTA), homogenized, pelleted by centrifugation, then resuspended in 50 mM Tris-HCl, pH 7.5 and 10% sucrose at 4° C. Protein concentration of the membrane suspension was determined using a Bio-Rad Bradford Protein Assay kit. Membranes were snap frozen and stored at −80° C. Chinese hamster ovary membranes expressing hDAT (CHO-DAT) were purchased from PerkinElmer and stored at −80° C.
(§3) Binding assays were performed in a 96-well assay plate in a total volume of 200 μl assay buffer (50 mM Tris-HCl, 120 mM NaCl, 5 mM KCl, pH 7.4) with 0.5, 1, and 3 μg membrane protein, for SERT, NET and DAT, respectively.
(§4) Stock solutions (10 mM in DMSO) of test compound were prepared and serial dilutions made using Dilution Buffer (50 mM Tris-HCl, 120 mM NaCl, 5 mM KCl, pH 7.4, 0.1% BSA, 400 μM ascorbic acid). Non-specific radioligand binding was determined in the presence of 1 μM duloxetine, 1 μM desipramine or 10 μM GBR12909 (each in Dilution Buffer) for the hSERT, hNET or hDAT assays, respectively.
(§5) Following a 60 minute incubation at 22° C. (or a period sufficient to reach equilibrium), the membranes were harvested by rapid filtration over a 96-well UniFilter GF/B plate, pretreated with 0.3% polyethyleneimine, and washed 6 times with […] (50 mM Tris-HCl, 0.9% NaCl, pH 7.5 at 4° C.). Plates were dried overnight at room temperature, approximately […] of MicroScint™-20 (Perkin Elmer) added and bound radioactivity quantitated via liquid scintillation spectroscopy. Inhibition curves and saturation isotherms were analyzed using GraphPad Prism Software package (GraphPad Software, Inc., San Diego, Calif.). IC50 values were generated from concentration response curves using the Sigmoidal Dose Response (variable slope) algorithm in Prism GraphPad. Kd and Bmax values for the radioligand were generated from saturation isotherms using the Saturation Binding Global Fit algorithm in Prism GraphPad. pKi (negative decadic logarithm of Ki) values for test compounds were calculated from the best-fit IC50 values, and the Kd value of the radioligand, using the Cheng-Prusoff equation (Cheng & Prusoff (1973) Biochem. Pharmacol. 22(23):3099-3108): Ki=IC50/(1+[L]/Kd), where [L]=concentration radioligand.
Target sequence in this assay (P31645 whole entry): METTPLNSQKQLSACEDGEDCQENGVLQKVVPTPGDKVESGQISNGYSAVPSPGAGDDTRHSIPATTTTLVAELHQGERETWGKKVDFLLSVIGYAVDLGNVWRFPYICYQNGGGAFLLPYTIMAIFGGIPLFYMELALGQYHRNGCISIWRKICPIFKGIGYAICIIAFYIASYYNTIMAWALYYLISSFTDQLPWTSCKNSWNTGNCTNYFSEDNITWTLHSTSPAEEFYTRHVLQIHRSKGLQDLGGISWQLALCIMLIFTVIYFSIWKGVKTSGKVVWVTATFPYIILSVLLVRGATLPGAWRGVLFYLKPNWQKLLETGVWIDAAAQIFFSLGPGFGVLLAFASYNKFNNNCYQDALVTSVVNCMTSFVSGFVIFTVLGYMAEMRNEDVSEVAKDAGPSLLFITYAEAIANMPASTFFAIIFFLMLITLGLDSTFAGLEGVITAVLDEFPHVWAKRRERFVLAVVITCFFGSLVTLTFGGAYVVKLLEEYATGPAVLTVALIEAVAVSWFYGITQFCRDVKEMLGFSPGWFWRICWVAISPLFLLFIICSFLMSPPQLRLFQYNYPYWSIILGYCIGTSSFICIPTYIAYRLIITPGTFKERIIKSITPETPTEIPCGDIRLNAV

NET [2] = target: T2, NET (Homo sapiens, UniProt P23975); experiment: hNET membrane radioligand binding assay (3H-nisoxetine); design: expressed in transfected cells; host or cells: HEK-293; conditions: hNET membranes (HEK-293), 1.0 nM 3H-nisoxetine; read-out: NET pKi (converted)
Experimental: as §1, §2, §3, §4, §5

NET [3] = target: T2, NET; experiment: fluorescence-based norepinephrine uptake assay (Tsuruda et al. 2010); format: cell-based; conditions: norepinephrine reuptake inhibition, fluorescence-based assay (data indicated by an asterisk); for IC50: read-out: NET pIC50 (converted)
SERT [4] = target: T1, SERT; experiment: fluorescence-based serotonin uptake assay (Tsuruda et al. 2010); format: cell-based; conditions: serotonin reuptake inhibition, fluorescence-based assay (data indicated by an asterisk); for IC50: read-out: SERT pIC50 (converted)
Target sequence in this assay (P31645 whole entry, species assumed): as the sequence (P31645 whole entry) above

T2 sequence (P23975 whole entry): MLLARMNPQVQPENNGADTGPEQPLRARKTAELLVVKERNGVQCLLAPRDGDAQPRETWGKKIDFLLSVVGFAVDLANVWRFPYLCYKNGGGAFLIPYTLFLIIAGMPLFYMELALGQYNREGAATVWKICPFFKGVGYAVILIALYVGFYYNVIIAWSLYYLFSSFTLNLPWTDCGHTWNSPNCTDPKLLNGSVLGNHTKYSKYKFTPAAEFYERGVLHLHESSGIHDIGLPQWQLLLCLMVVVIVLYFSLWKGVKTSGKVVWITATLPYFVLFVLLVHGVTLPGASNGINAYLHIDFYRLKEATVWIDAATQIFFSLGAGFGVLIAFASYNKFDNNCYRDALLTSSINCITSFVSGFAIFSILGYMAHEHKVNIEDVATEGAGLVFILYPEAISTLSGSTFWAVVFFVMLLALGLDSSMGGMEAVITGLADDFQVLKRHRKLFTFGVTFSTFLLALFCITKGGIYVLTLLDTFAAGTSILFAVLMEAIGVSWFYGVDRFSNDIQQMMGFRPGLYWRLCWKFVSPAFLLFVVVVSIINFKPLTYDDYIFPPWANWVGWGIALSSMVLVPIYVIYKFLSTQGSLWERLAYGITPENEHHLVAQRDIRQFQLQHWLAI

In the case of `COCC(Oc1cc(Cl)cc(Cl)c1)C1CCNC1` (centres unmarked) [Example 4-29, 3-[1-(3,5-Dichlorophenoxy)-2-methoxyethyl]pyrrolidine], the Ki (SERT [1]) is reported as no more than 0.01 µM and the Ki (NET [2]) is reported as no more than 0.1 µM.
For `CSCCC(Oc1cccc(Cl)c1Cl)C1CCNC1` (mixture of isomers) [Example 20, 3-[1-(2,3-Dichlorophenoxy)-3-methylsulfanylpropyl]pyrrolidine], the Ki (SERT [1]) was no more than 0.01 µM and the Ki (NET [2]) was no more than 0.01 µM.
Compound `FC(F)(F)c1cccc(O[C@H](C2CCOCC2)[C@@H]2CCNC2)c1` [Example 13-7, (R)-3-[(R)-(Tetrahydropyran-4-yl)(3-trifluoromethylphenoxy)methyl]pyrrolidine] has a Ki (SERT [1]) of no more than 0.1 µM and a Ki (NET [2]) of no more than 0.1 µM.
Compound `FC(F)(F)c1c(Cl)cccc1O[C@H](C1CCOCC1)[C@H]1CCNC1` [Example 13-19, (S)-3-[(R)-(3-Chloro-2-trifluoromethylphenoxy)(tetrahydropyran-4-yl)-methyl]-pyrrolidine] has a Ki (SERT [1]) of no more than 0.01 µM and a Ki (NET [2]) of no more than 0.1 µM.
Compound `Fc1ccc(O[C@H](C2CCOCC2)[C@@H]2CCNC2)cc1` [Example 13-10, (R)-3-[(R)-(4-Fluorophenoxy)(tetrahydropyran-4-yl)methyl]pyrrolidine] has a Ki (SERT [1]) of no more than 0.1 µM and a Ki (NET [2]) of no more than 0.1 µM.
In the case of `CC(C)SC[C@@H](Oc1cccc(Cl)c1Cl)[C@H]1CCNC1` [Example 19-2, (S)-3-[(S)-1-(2,3-Dichlorophenoxy)-2-isopropylsulfanylethyl]pyrrolidine], the IC50 (NET [3]) is reported as no more than 0.01 µM and the IC50 (SERT [4]) is reported as no more than 0.01 µM.
With `CC(C)SC[C@H](Oc1ccc(Cl)c(Cl)c1)[C@H]1CCNC1` [Example 19-7, (S)-3-[(R)-1-(3,4-Dichlorophenoxy)-2-isopropylsulfanylethyl]-pyrrolidine] the IC50 (NET [3]) was no more than 0.01 µM and the IC50 (SERT [4]) was no more than 0.01 µM.
`Cc1c(Cl)cccc1O[C@@H](COC(C)C)[C@@H]1CCNC1` [Example 9-25, (R)-3-[(R)-1-(3-Chloro-2-methylphenoxy)-2-isopropoxyethyl]pyrrolidine] was tested, and the “SERT pKi” value (SERT [1]) was “≧8.0” and the “SERT pIC50” value (SERT [4]) was “≧8.0*”.
Work on `CCOC[C@H](Oc1ccc(F)cc1)[C@H]1CCNC1` [Example 7-5, (S)-3-[(R)-2-Ethoxy-1-(4-fluorophenoxy)ethyl]pyrrolidine] yielded an IC50 (NET [3]) of no more than 0.1 µM and an IC50 (SERT [4]) of no more than 0.1 µM.
For `CC(C)OC[C@@H](Oc1ccc(Cl)cc1Cl)[C@H]1CCNC1` [Example 9-23, (S)-3-[(S)-1-(2,4-Dichlorophenoxy)-2-isopropoxyethyl]pyrrolidine], the IC50 (NET [3]) was no more than 0.1 µM and the IC50 (SERT [4]) was no more than 0.01 µM.
`CC(C)SC[C@H](Oc1cccc(F)c1Cl)[C@H]1CCNC1` [Example 19-3, (S)-3-[(R)-1-(2-Chloro-3-fluorophenoxy)-2-isopropylsulfanylethyl]pyrrolidine] was tested, and the IC50 (NET [3]) was no more than 0.01 µM and the IC50 (SERT [4]) was no more than 0.01 µM.
`CSC[C@H](Oc1ccc(Cl)cc1C)[C@H]1CCNC1` [Example 14, (S)-3-[(R)-1-(4-Chloro-2-methylphenoxy)-2-methylsulfanylethyl]pyrrolidine] showed an IC50 (NET [3]) of no more than 0.01 µM and an IC50 (SERT [4]) of no more than 0.01 µM.
For `CCOC[C@H](Oc1ccc(Cl)cc1C)[C@H]1CCNC1` [Example 7-22, (S)-3-[(R)-1-(4-Chloro-2-methylphenoxy)-2-ethoxyethyl]pyrrolidine], the IC50 (NET [3]) was no more than 0.01 µM and the IC50 (SERT [4]) was no more than 0.01 µM.
Compound `Cc1c(Cl)cccc1O[C@@H](COC(C)C)[C@H]1CCNC1` [Example 9-16, (S)-3-[(R)-1-(3-Chloro-2-methylphenoxy)-2-isopropoxyethyl]pyrrolidine] has an IC50 (NET [3]) of no more than 0.01 µM and an IC50 (SERT [4]) of no more than 0.01 µM.
`CCOC[C@H](Oc1ccc(Cl)c(Cl)c1F)[C@H]1CCNC1` [Example 7-29, (S)-3-[(R)-1-(3,4-Dichloro-2-fluorophenoxy)-2-ethoxyethyl]pyrrolidine] was tested, and the IC50 (NET [3]) was no more than 0.01 µM and the IC50 (SERT [4]) was no more than 0.01 µM.
For `CCOC[C@@H](Oc1cccc(Cl)c1C(F)(F)F)[C@H]1CCNC1` [Example 7-16, (S)-3-[(S)-1-(3-Chloro-2-trifluoromethylphenoxy)-2-ethoxyethyl]pyrrolidine], the IC50 (NET [3]) was no more than 0.1 µM and the IC50 (SERT [4]) was no more than 0.01 µM.
For `CSC[C@H](Oc1cccc(Cl)c1C)[C@H]1CCNC1.O=C(O)C(F)(F)F` [Example 15-5], the “NET pIC50” value (NET [3]) was “≧8.0*” and the “SERT pIC50” value (SERT [4]) was “≧8.0*”.
With `CC(C)SC[C@@H](Oc1cccc(F)c1Cl)[C@H]1CCNC1` [Example 19-4, (S)-3-[(S)-1-(2-Chloro-3-fluorophenoxy)-2-isopropylsulfanylethyl]pyrrolidine] the IC50 (NET [3]) was no more than 0.01 µM and the IC50 (SERT [4]) was no more than 0.01 µM.
`CCOC[C@@H](Oc1cccc(F)c1Cl)[C@H]1CCNC1` [Example 7-10, (S)-3-[(S)-1-(2-Chloro-3-fluorophenoxy)-2-ethoxyethyl]pyrrolidine] gave an IC50 (NET [3]) of no more than 0.01 µM and an IC50 (SERT [4]) of no more than 0.01 µM.
Work on `CC(C)OC[C@H](Oc1c(Cl)cccc1Cl)[C@H]1CCNC1` [Example 9-29, (S)-3-[(R)-1-(2,6-Dichlorophenoxy)-2-isopropoxyethyl]pyrrolidine] yielded an IC50 (NET [3]) of no more than 0.01 µM and an IC50 (SERT [4]) of no more than 0.1 µM.
Compound `CC(C)SC[C@H](Oc1cccc(Cl)c1Cl)[C@H]1CCNC1` [Example 19-1, (S)-3-[(R)-1-(2,3-Dichlorophenoxy)-2-isopropylsulfanylethyl]pyrrolidine] has an IC50 (NET [3]) of no more than 0.01 µM and an IC50 (SERT [4]) of no more than 0.01 µM.
With `CSC[C@H](Oc1ccc(Cl)cc1Cl)[C@H]1CCNC1.O=C(O)C(F)(F)F` [Example 15-11] the “NET pIC50” value (NET [3]) was “≧8.0*” and the “SERT pIC50” value (SERT [4]) was “≧8.0*”.
With `CCSC[C@@H](Oc1cccc(C(F)(F)F)c1)[C@H]1CCNC1.O=C(O)C(F)(F)F` [Example 17-12] the “NET pIC50” value (NET [3]) was “≧7.0*” and the “SERT pIC50” value (SERT [4]) was “≧8.0*”.
In the case of `CCSC[C@@H](Oc1cccc(F)c1Cl)[C@H]1CCNC1.O=C(O)C(F)(F)F` [Example 17-4], the “NET pIC50” value (NET [3]) is reported as “≧8.0*” and the “SERT pIC50” value (SERT [4]) is reported as “≧8.0*”.
In the case of `CCOC[C@H](Oc1cccc(C(F)(F)F)c1)[C@H]1CCNC1` [Example 7-2, (S)-3-[(R)-2-Ethoxy-1-(3-trifluoromethylphenoxy)ethyl]pyrrolidine], the IC50 (NET [3]) is reported as no more than 0.1 µM and the IC50 (SERT [4]) is reported as no more than 0.1 µM.
`Clc1cccc(OC(COCc2ccccc2)C2CCNC2)c1Cl` [Example 10-2, ((S)-3-[(R)-2-Benzyloxy-1-(2,3-dichlorophenoxy)ethyl]pyrrolidine] showed an IC50 (NET [3]) of no more than 0.01 µM and an IC50 (SERT [4]) of no more than 0.01 µM.
`CC(C)OC[C@H](Oc1cccc(C(F)(F)F)c1)[C@H]1CCNC1` [Example 9-4, (S)-3-[(R)-2-Isopropoxy-1-(3-trifluoromethylphenoxy)ethyl]pyrrolidine] was tested, and the IC50 (NET [3]) was no more than 0.1 µM and the IC50 (SERT [4]) was no more than 0.1 µM.
`CC(C)OC[C@@H](Oc1cccc(Cl)c1C(F)(F)F)[C@H]1CCNC1` [Example 9-19, (S)-3-[(S)-1-(3-Chloro-2-trifluoromethylphenoxy)-2-isopropoxyethyl]pyrrolidine] was tested, and the IC50 (NET [3]) was no more than 0.01 µM and the IC50 (SERT [4]) was no more than 0.01 µM.
Compound `CCOC[C@H](Oc1ccc(C(F)(F)F)cc1Cl)[C@H]1CCNC1` [Example 7-19, (S)-3-[(R)-1-(2-Chloro-4-trifluoromethylphenoxy)-2-ethoxyethyl]pyrrolidine] has an IC50 (NET [3]) of no more than 0.01 µM and an IC50 (SERT [4]) of no more than 0.01 µM.
`CCOC[C@H](Oc1c(F)ccc(F)c1Cl)[C@H]1CCNC1` [Example 7-30, (S)-3-[(R)-1-(2-Chloro-3,6-difluorophenoxy)-2-ethoxyethyl]pyrrolidine] showed an IC50 (NET [3]) of no more than 0.01 µM and an IC50 (SERT [4]) of no more than 0.1 µM.
`CCOC[C@@H](Oc1ccc(C#N)cc1Cl)[C@@H]1CCNC1` (stereo in doubt) [Example 7-20, 3-Chloro-4-((R)-2-ethoxy-1-(S)-pyrrolidin-3-ylethoxy)benzonitrile] showed an IC50 (NET [3]) of no more than 0.1 µM and an IC50 (SERT [4]) of no more than 0.01 µM.

Source: patent US8455665B2, “3-phenoxymethylpyrrolidine compounds” (Theravance, Inc., priority 2009, dated 2013)
